Reference: patent US5907038A, “Azepanes” (Hoffmann-La Roche Inc., priority 1995, dated 1999)
Where a name gives a salt, the structure may show the parent alone.

Columns and labels:
[1] = target: protein kinase C (PKC); experiment: Inhibition of protein kinase C (PKC) (isolated enzyme); type: biochemical; conditions: partially purified PKC from swine brain; histone H1 substrate; 32° C., 2 minutes; read-out: IC50 (Test Procedure A)
Experimental: A: Inhibition of protein kinase C (PKC) (isolated enzyme): Protein kinase C (PKC) activity is determined by measuring the transfer of ^32 P-labelled phosphate from ^32 P-g-ATP ([…]) to histone H1 ([…]) as the substrate. Partially purified PKC from swine brain is used as the enzyme source [DEAE chromatography according to the method of U. Kikkawa et al. (Methods Enzymol. 99, 288, 1983)]. Activation of the PKC is effected by phospholipid vesicle prepared by ultrasound treatment of a mixture of 0.05 ml of phosphatidylserine (10 mg/ml) and 0.005 ml of diolein (10 mg/ml) in 5 ml of Tris-HCl buffer (20 mM, pH 7.4). The test substances are used in dimethyl sulphoxide (DMSO)/buffer in the concentration range […]. The test is started by the addition of enzyme; after incubation at 32° C. for 2 minutes the reaction is stopped by the addition of 20% trichloroacetic acid (with 1% SDS and 1% sodium pyrophosphate). The precipitated radioactive histone protein is separated from excess ATP by filtration over nitrocellulose membranes and the radioactivity on the filter is measured in a scintillation counter. The inhibitory activity of the test substance is given as the micromolar concentration which is required to reduce the PKC activity by 50% ([…]).

[2] = target: cAMP-dependent protein kinase (PKA); experiment: Inhibition of cAMP-dependent protein kinase (PKA); type: biochemical; conditions: partially purified PKA from swine brain; histone H1 substrate; cyclic AMP activation; 32° C., 2 minutes; read-out: IC50 (Test Procedure B)
Experimental: B: Inhibition of cAMP-dependent protein kinase (PKA): PKA activity is determined by measuring the transfer of ^32 P-labelled phosphate from ^32 P-g-ATP ([…]) to histone H1 ([…]) as the substrate. Partially purified PKA from swine brain is used as the enzyme source [DEAE chromatography according to the method of U. Kikkawa et al. (Methods Enzymol. 99, 288, 1983)]. Activation of the PKA is effected by cyclic AMP (2 mM) in Tris-HCl buffer (20 mM, pH 7.4). The test substances are used in dimethyl sulfoxide (DMSO)/buffer in the concentration range […]. The test is started by the addition of enzyme; after incubation at 32° C. for 2 minutes the reaction is stopped by the addition of 20% trichloroacetic acid (with 1% SDS and 1% sodium pyrophosphate). The precipitated radioactive histone protein is separated from excess ATP by filtration over nitrocellulose membranes and the radioactivity on the filter is measured in a scintillation counter. The inhibitory activity of the test substance is given as the micromolar concentration which is required to reduce the PKA activity by 50% ([…]).

[3] = tested on: Mouse Hair Follicle; experiment: Cell proliferation in cultured mouse hair follicles (3H-thymidine incorporation, DNA synthesis); type: cell-based, mouse (CD-1); conditions: for Emax: 3H-thymidine incorporation as percentage of control, whisker follicles of 4-day-old CD-1 mice, read-out: Mouse Hair Follicle DNA Synthesis Maximal Stimulation; for EC50: concentration giving 50% of the maximal stimulation of DNA synthesis
Experimental: C: Cell proliferation in cultured mouse hair follicles Mouse whisker follicles were isolated and cultured according to the method described by Buhl et al., J. Invest. Dermatol. 92, 315-320 (1989). Whisker pads were removed from 4-day-old CD-1 mice and vibrissae were carefully separated from the surrounding tissue with forceps under a dissecting microscope. Four hair follicles were incubated at 37° C. in 2 cm^2 wells in 1 ml of M199 medium containing 20% fetal bovine serum, in the presence or absence of test compound at varying concentrations. Each treatment group consisted of four wells. After 1 day of culture. ^3 H-thymidine was added to the wells to a final concentration of 5 μCi/ml and the follicles were incubated for a further three days. The follicles were then washed with phosphate-buffered saline and incorporated radioactivity was solubilized by addition of 0.5 ml of 1.0M NaOH and incubation for 18 h at 37° C. An aliquot of the alkali extracted was taken for measurement of radioactivity and results were expressed as dpm/follicle. Calculation of maximal stimulation and ED50 values The hair follicle ^3 H-thymidine incorporation values (dpm/follicle), obtained as described above, were then expressed as a percentage of control levels as follows: % control DNA synthesis for test compound=((treatment dpm/follicle)/(control dpm/follicle))×100 The dose-response relationship for each compound was then used to determine: 1) the maximal stimulation of DNA synthesis obtained for that compound, expressed as a percentage of control levels, and 2) the ED50 value, or the concentration (μM) of compound that gave rise to 50% of the maximal stimulation of DNA synthesis.

| Structure (SMILES) | IC50 [1] [µM] | IC50 [2] [µM] | Emax [3] [%] | EC50 [3] [µM] |
| --- | --- | --- | --- | --- |
| O=C(N[C@@H]1CNCCC[C@H]1OC(=O)c1ccc(S(=O)(=O)Oc2ccccc2O)cc1)c1ccc(O)cc1 [I/28, 4-(2-Hydroxy-phenoxysulfonyl)-benzoic acid (3R,4R)-3-(4-hydroxy-benzoylamino)-azepan-4-yl ester hydrochloride (1:1)] | – | – | 349 ± 25 | 40 |
| O=C(N[C@@H]1CNCCC[C@H]1OC(=O)c1ccc(O)cc1)c1ccc(OC(=O)c2c(O)cccc2O)cc1 [II/1, 4-Hydroxy-benzoic acid (3R,4R)-3-[4-(2,6-dihydroxy-benzoyloxy)-benzoylamino]-azepan-4-yl ester trifluoroacetate (1:1)] | 30 | 0.038 | 468 ± 26 | 10 |

The remaining molecules from weak to strong by IC50 [1], led by results:

| IC50 [1] [µM] | IC50 [2] [µM] | Structure (SMILES) | Emax [3] [%] | EC50 [3] [µM] |
| --- | --- | --- | --- | --- |
| 26 | 1.9 | CN(C(=O)c1ccccc1O)c1ccc(C(=O)O[C@@H]2CCCNC[C@H]2NC(=O)c2ccc(O)cc2)cc1 [I/25, 4-[(2-Hydroxy-benzoyl)-methyl-amino]-benzoic acid (3R,4R)-3-(4-hydroxy-benzoylamino)-azepan-4-yl ester trifluoroacetate (1:1)] | – | – |
| 24 | 0.041 | COc1cc2c(O)cccc2cc1C(=O)O[C@@H]1CCCNC[C@H]1NC(=O)c1ccc(O)cc1 [I/19, 5-Hydroxy-3-methoxy-naphthalene-2-carboxylic acid (3R,4R)-3-(4-hydroxy-benzoylamino)-azepan-4-yl ester trifluoroacetate (1:1)] | 371 ± 50 | 30 |
| 10 | 0.026 | O=C(N[C@@H]1CNCCC[C@H]1OC(=O)c1ccc(O)cc1)c1ccc(O)cc1 [III/1, 4-Hydroxy-benzoic acid (3R,4R)-3-(4-hydroxy-benzoylamino)-azepan-4-yl ester hydrochloride (1:1)] | 534 ± 52 | 5 |
| 8.8 | 0.07 | O=C(N[C@@H]1CNCCC[C@H]1OC(=O)c1ccc(O)c(O)c1)c1ccc(O)cc1 [I/15, 3,4-Dihydroxy-benzoic acid (3R,4R)-3-(4-hydroxy-benzoylamino)-azepan-4-yl ester trifluoroacetate (1:1)] | – | – |
